Reference: patent US11186576B2, “Pyrazolo[1,5-A][1,3,5]triazine and pyrazolo[1,5-A]pyrimidine derivatives as CDK inhibitors” (Aurigene Discovery Technologies Limited, priority 2015, dated 2021)
Like-named read-outs stand apart in the source and are kept apart here.

Target: CDK7/CycH/MNAT1 (Homo sapiens (Human), UniProt P50613)
Experiment: Biochemical assay for CDK7 (TR-FRET kinase assay)
Conditions: for inhibition at 10 µM: read-out: % inhibition @ 10 μM
Procedure: The ability of compounds to inhibit CDK7 kinase activity was tested in a TR-FRET assay using 5 nM of CDK7/CycH/MNAT1 obtained from Invitrogen, USA. Test compounds were pre-incubated with the kinase at room temperature for 60 min. After incubation, substrate mix [100 nM Ultra-light MBP (Perkin Elmer, USA) and 1 mM ATP (Sigma)] was added. The above reaction was stopped by the addition of 40 mM EDTA after 60 minutes of kinase reaction. 1 nM Eu-labelled antiphospho-MBP antibody [Perkin Elmer, USA] was added, mixed well and the fluorescence emission at 615 nm and 665 nm [excitation at 340 nm] was measured. The final DMSO concentration in the assay was 1%. For IC50 determination, appropriate concentrations were made by ⅓^rd serial dilutions of 10 mM DMSO stock solution of test compound. All the fluorescence measurements were made in a Victor 3 Multilabel Counter [Perkin Elmer, USA]. The IC50 was determined by fitting the dose response data to sigmoidal curve fitting equation using GraphPad Prism software V5. To identify compounds that inhibit CDK7 irreversibly, time depended inhibition studies were carried by pre-incubating compound with the enzyme at three time points (20, 60 and 180 min) and carrying out assay as described above.

[1] = 10 μM compound, 60 min pre-incubation, 1 mM ATP
[2] = 60 min pre-incubation, 1 mM ATP, read-out: IC50

Sequence of CDK7/CycH/MNAT1 (P50613 whole entry): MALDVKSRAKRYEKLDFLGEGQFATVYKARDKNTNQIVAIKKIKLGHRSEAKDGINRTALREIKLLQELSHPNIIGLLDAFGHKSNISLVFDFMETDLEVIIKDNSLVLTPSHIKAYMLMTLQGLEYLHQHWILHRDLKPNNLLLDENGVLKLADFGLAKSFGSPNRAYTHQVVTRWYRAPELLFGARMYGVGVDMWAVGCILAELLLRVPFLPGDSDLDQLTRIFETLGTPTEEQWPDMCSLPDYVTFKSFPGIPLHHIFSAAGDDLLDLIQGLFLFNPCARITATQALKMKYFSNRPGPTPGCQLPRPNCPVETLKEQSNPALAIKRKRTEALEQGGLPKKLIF
Sequence of CDK7/CycH/MNAT1 (P51946 whole entry partner): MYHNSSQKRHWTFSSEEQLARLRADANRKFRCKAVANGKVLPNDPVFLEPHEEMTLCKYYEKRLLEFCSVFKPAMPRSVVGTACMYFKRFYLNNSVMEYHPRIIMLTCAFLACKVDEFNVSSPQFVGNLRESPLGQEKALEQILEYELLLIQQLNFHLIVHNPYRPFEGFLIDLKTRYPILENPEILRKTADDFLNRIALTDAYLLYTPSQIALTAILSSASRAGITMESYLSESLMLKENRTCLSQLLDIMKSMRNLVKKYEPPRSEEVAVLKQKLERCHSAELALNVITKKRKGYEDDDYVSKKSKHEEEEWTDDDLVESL
Sequence of CDK7/CycH/MNAT1 (P51948 whole entry partner): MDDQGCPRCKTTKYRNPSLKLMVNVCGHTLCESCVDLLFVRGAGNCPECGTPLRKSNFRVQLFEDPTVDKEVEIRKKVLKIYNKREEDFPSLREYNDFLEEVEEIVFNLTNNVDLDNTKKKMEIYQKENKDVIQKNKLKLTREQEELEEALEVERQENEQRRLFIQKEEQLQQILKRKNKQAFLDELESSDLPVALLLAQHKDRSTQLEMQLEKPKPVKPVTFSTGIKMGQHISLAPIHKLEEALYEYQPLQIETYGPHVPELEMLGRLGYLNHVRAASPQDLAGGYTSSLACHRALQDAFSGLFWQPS

Compound | inhibition at 10 µM [1] | IC50 [2] | IC50 (IC50, 60 min pre-incubation, 1 mM ATP) | inhibition at 10 µM
CC(C)c1cnn2c(NCc3cccc(NC(=O)/C=C/CN4CCC(F)(F)C4)c3)nc(NC3CCOCC3)nc12 [Compound 57, (E)-4-(3,3-difluoropyrrolidin-1-yl)-N-(3-(((8-isopropyl-2-((tetrahydro-2H-pyran-4-yl)amino)pyrazolo[1,5-a][1,3,5]triazin-4-yl)amino)methyl)phenyl)but-2-enamide] | 84% | > 1000 nM |  | 
CC(C)c1cnn2c(NCc3cc(F)cc(NC(=O)/C=C/CN(C)C)c3)nc(NC3CCOCC3)nc12 [Compound 59, (E)-4-(dimethylamino)-N-(3-fluoro-5-(((8-isopropyl-2-((tetrahydro-2H-pyran-4-yl)amino)pyrazolo[1,5-a][1,3,5]triazin-4-yl)amino)methyl)phenyl)but-2-enamide] | 98% | < 300 nM |  | 
CC(C)c1cnn2c(NCc3cccc(NC(=O)/C=C/CN(C)C)c3F)nc(NC3CCOCC3)nc12 [Compound 60, (E)-4-(dimethylamino)-N-(2-fluoro-3-(((8-isopropyl-2-((tetrahydro-2H-pyran-4-yl)amino)pyrazolo[1,5-a][1,3,5]triazin-4-yl)amino)methyl)phenyl)but-2-enamide] | 98% | < 300 nM |  | 
CC(C)c1cnn2c(NCc3cc(F)cc(NC(=O)/C=C/CN4CCOCC4)c3)nc(NC3CCOCC3)nc12 [Compound 61, (E)-N-(3-fluoro-5-(((8-isopropyl-2-((tetrahydro-2H-pyran-4-yl)amino)pyrazolo[1,5-a][1,3,5]triazin-4-yl)amino)methyl)phenyl)-4-morpholinobut-2-enamide] | 76% | > 1000 nM |  | 
CC(C)c1cnn2c(NCc3ccccc3NC(=O)/C=C/CN(C)C)nc(NC3CCOCC3)nc12 [Compound 62, (E)-4-(dimethylamino)-N-(2-(((8-isopropyl-2-((tetrahydro-2H-pyran-4-yl)amino)pyrazolo[1,5-a][1,3,5]triazin-4-yl)amino)methyl)phenyl)but-2-enamide] | 97% | < 300 nM |  | 
CC(C)c1cnn2c(NCc3ccc(NC(=O)/C=C/CN4CCCC4)cc3)nc(NC3CCOCC3)nc12 [Compound 63, (E)-N-(4-(((8-isopropyl-2-((tetrahydro-2H-pyran-4-yl)amino)pyrazolo[1,5-a][1,3,5]triazin-4-yl)amino)methyl)phenyl)-4-(pyrrolidin-1-yl)but-2-enamide] | 94% | 300 to 1000 nM |  | 
CC(C)c1cnn2c(NCc3ccc(F)c(NC(=O)C4CCN(C(=O)/C=C/CN(C)C)C4)c3)nc(NC3CCOCC3)nc12 (stereo not drawn) [Compound 64, (E)-1-(4-(dimethylamino)but-2-enoyl)-N-(2-fluoro-5-(((8-isopropyl-2-((tetrahydro-2H-pyran-4-yl)amino)pyrazolo[1,5-a][1,3,5]triazin-4-yl)amino)methyl)phenyl) pyrrolidine-3-carboxamide] | 91% | 300 to 1000 nM |  | 
CC(C)c1cnn2c(NCc3cc(NC(=O)C4CCN(C(=O)/C=C/CN(C)C)C4)ccc3F)nc(NC3CCOCC3)nc12 (stereo not drawn) [Compound 70, (E)-1-(4-(dimethylamino)but-2-enoyl)-N-(4-fluoro-3-(((8-isopropyl-2-((tetrahydro-2H-pyran-4-yl)amino)pyrazolo[1,5-a][1,3,5]triazin-4-yl)amino)methyl)phenyl)pyrrolidine-3-carboxamide] | 85% | 300 to 1000 nM |  | 
CC(C)c1cnn2c(NCc3cc(F)cc(NC(=O)C4CCN(C(=O)/C=C/CN(C)C)C4)c3)nc(NC3CCOCC3)nc12 (stereo not drawn) [Compound 71, (E)-1-(4-(dimethylamino)but-2-enoyl)-N-(3-fluoro-5-(((8-isopropyl-2-((tetrahydro-2H-pyran-4-yl)amino)pyrazolo[1,5-a][1,3,5]triazin-4-yl)amino)methyl)phenyl)pyrrolidine-3-carboxamide] | 92% | 300 to 1000 nM |  | 
CC(C)c1cnn2c(NC(C)c3cccc(NC(=O)C4CCCN(C(=O)/C=C/CN(C)C)C4)c3)nc(NC3CCOCC3)nc12 (stereo not drawn) [Compound 72, (E)-1-(4-(dimethylamino)but-2-enoyl)-N-(3-(1-((8-isopropyl-2-((tetrahydro-2H-pyran-4-yl)amino)pyrazolo[1,5-a][1,3,5]triazin-4-yl)amino)ethyl)phenyl)piperidine-3-carboxamide] | 84% | 300 to 1000 nM |  | 
CC(C)c1cnn2c(NCc3cccc(OC(=O)N4CCN(C(=O)/C=C/CN(C)C)CC4)c3)nc(NC3CCOCC3)nc12 [Compound 75, 3-(((8-isopropyl-2-((tetrahydro-2H-pyran-4-yl)amino)pyrazolo[1,5-a][1,3,5]triazin-4-yl)amino)methyl)phenyl(E)-4-(4-(dimethylamino)but-2-enoyl)piperazine-1-carboxylate] |  |  | < 300 nM | 97%

Now from value to molecule, other results behind:

inhibition at 10 µM [1] | IC50 [2] | Compound | IC50 (IC50, 60 min pre-incubation, 1 mM ATP) | inhibition at 10 µM
97% | < 300 nM | CC(C)c1cnn2c(NCc3cccc(NC(=O)/C=C/CN4CCC(F)C4)c3)nc(NC3CCOCC3)nc12 (stereo not drawn) [Compound 56, (E)-4-(3-fluoropyrrolidin-1-yl)-N-(3-(((8-isopropyl-2-((tetrahydro-2H-pyran-4-yl)amino)pyrazolo[1,5-a][1,3,5]triazin-4-yl)amino)methyl)phenyl)but-2-enamide] |  | 
96% | 300 to 1000 nM | CC(C)c1cnn2c(NCc3cccc(NC(=O)/C=C/CN4CCCC(F)C4)c3)nc(NC3CCOCC3)nc12 (stereo not drawn) [Compound 58, (E)-4-(3-fluoropiperidin-1-yl)-N-(3-(((8-isopropyl-2-((tetrahydro-2H-pyran-4-yl)amino)pyrazolo[1,5-a][1,3,5]triazin-4-yl)amino)methyl)phenyl)but-2-enamide] |  | 
86% | > 1000 nM | C/C=C/C(=O)N1CCC1C(=O)Nc1cccc(CNc2nc(NC3CCOCC3)nc3c(C(C)C)cnn23)c1 (stereo not drawn) [Compound 65, (E)-1-(but-2-enoyl)-N-(3-(((8-isopropyl-2-((tetrahydro-2H-pyran-4-yl)amino)pyrazolo[1,5-a][1,3,5]triazin-4-yl)amino)methyl)phenyl)azetidine-2-carboxamide] |  | 
98% | < 300 nM | C#CC(=O)N1CCC1C(=O)Nc1cccc(CNc2nc(NC3CCOCC3)nc3c(C(C)C)cnn23)c1 (stereo not drawn) [Compound 66, N-(3-(((8-isopropyl-2-((tetrahydro-2H-pyran-4-yl)amino)pyrazolo[1,5-a][1,3,5]triazin-4-yl)amino)methyl)phenyl)-1-propioloylazetidine-2-carboxamide] |  | 
91% | 300 to 1000 nM | C=C(C)C(=O)N1CCC1C(=O)Nc1cccc(CNc2nc(NC3CCOCC3)nc3c(C(C)C)cnn23)c1 (stereo not drawn) [Compound 67, N-(3-(((8-isopropyl-2-((tetrahydro-2H-pyran-4-yl)amino)pyrazolo[1,5-a][1,3,5]triazin-4-yl)amino)methyl)phenyl)-1-methacryloylazetidine-2-carboxamide] |  | 
92% | 300 to 1000 nM | COC/C=C/C(=O)N1CCC(C(=O)Nc2cccc(CNc3nc(NC4CCOCC4)nc4c(C(C)C)cnn34)c2)C1 (stereo not drawn) [Compound 68, (E)-N-(3-(((8-isopropyl-2-((tetrahydro-2H-pyran-4-yl)amino)pyrazolo[1,5-a][1,3,5]triazin-4-yl)amino)methyl)phenyl)-1-(4-methoxybut-2-enoyl)pyrrolidine-3-carboxamide] |  | 
101% | < 300 nM | CC(C)c1cnn2c(NCc3cccc(NC(=O)C4COCCN4C(=O)/C=C/CN(C)C)c3)nc(NC3CCOCC3)nc12 (stereo not drawn) [Compound 73, (E)-4-(4-(dimethylamino)but-2-enoyl)-N-(3-(((8-isopropyl-2-((tetrahydro-2H-pyran-4-yl)amino)pyrazolo[1,5-a][1,3,5]triazin-4-yl)amino)methyl)phenyl)morpholine-3-carboxamide] |  | 
99% | < 300 nM | CC(C)c1cnn2c(NCc3cccc(NC(=O)C4CCCCN4C(=O)/C=C/CN(C)C)c3)nc(NC3CCOCC3)nc12 (stereo not drawn) [Compound 74, (E)-1-(4-(dimethylamino)but-2-enoyl)-N-(3-(((8-isopropyl-2-((tetrahydro-2H-pyran-4-yl)amino)pyrazolo[1,5-a][1,3,5]triazin-4-yl)amino)methyl)phenyl)piperidine-2-carboxamide] |  | 
81% | > 1000 nM | CC(C)c1cnn2c(NCc3cccc(NC(=O)C4CCN4C/C=C/C(=O)N(C)C)c3)nc(NC3CCOCC3)nc12 (stereo not drawn) [Compound 76, (E)-1-(4-(dimethylamino)-4-oxobut-2-en-1-yl)-N-(3-(((8-isopropyl-2-((tetrahydro-2H-pyran-4-yl)amino)pyrazolo[1,5-a][1,3,5]triazin-4-yl)amino)methyl)phenyl)azetidine-2-carboxamide] |  | 
99% | < 300 nM | CC(C)c1cnn2c(NCc3cccc(NC(=O)C4CCCCN4C(=O)/C=C/CN4CCCC4)c3)nc(NC3CCOCC3)nc12 (stereo not drawn) [Compound 77, (E)-N-(3-(((8-isopropyl-2-((tetrahydro-2H-pyran-4-yl)amino)pyrazolo[1,5-a][1,3,5]triazin-4-yl)amino)methyl)phenyl)-1-(4-(pyrrolidin-1-yl)but-2-enoyl)piperidine-2-carboxamide] |  | 
